One series addresses T1, CRTh2 receptor (Homo sapiens, UniProt Q9Y5Y4).
T1 construct: expressed in transfected cells
T1 sequence (Q9Y5Y4 1-395): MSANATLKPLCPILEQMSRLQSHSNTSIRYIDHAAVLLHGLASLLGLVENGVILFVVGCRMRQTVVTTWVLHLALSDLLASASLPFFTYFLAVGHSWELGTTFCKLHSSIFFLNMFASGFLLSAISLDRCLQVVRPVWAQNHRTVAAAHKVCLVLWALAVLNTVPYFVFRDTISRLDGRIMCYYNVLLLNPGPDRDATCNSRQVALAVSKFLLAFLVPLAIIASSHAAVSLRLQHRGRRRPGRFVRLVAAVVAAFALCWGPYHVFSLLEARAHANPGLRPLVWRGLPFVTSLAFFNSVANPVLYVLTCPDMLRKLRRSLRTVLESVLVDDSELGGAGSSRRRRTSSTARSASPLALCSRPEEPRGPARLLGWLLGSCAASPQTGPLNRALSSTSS
In words: Intracellular calcium mobilisation (FLIPR, inhibition of PGD2 response) in HEK-hrCRTh2-Gα16 cells. Format: cell-based. Conditions: antagonism of 2×p[A]50 PGD2, Cheng-Prusoff analysis, read-out: pA2 (converted). How it is done: Intracellular Calcium Mobilisation
Human Embryonic Kidney Cells co-transfected with both the CRTh2 receptor and Gα16 G-protein (HEK-hrCRTh2-Gα16) are routinely cultured as monolayers in Dulbecco's Modified Eagles Medium (DMEM; Sigma) supplemented with 10% (v:v) heat inactivated foetal bovine serum (New Zealand sourced; Hyclone), 1% (v:v) non-essential amino acids (Gibco BRL), 1% (v:v) penicillin/streptomycin (Gibco BRL), 2 mM L-glutamine (Gibco BRL) and grown under 1 mg/ml (v:v) Geneticin (Gibco BRL) antibiotic selection. Approximately 24 hours prior to the assay the cells are plated at a seeding density of 100,000 cells/well in 100 μl growth media into black walled 96 well Poly-D-Lysine coated plates (Becton Dickinson), with clear bottoms to allow cell inspection and fluorescence measurements from the bottom of each well. All cultures are maintained under standard tissue culture conditions (37° C. in a humidified atmosphere of 5% CO2).
To enable changes in intracellular calcium levels to be measured in HEK-hrCRTh2-Gα16 cells fluo-3AM is utilised as the fluorescent calcium indicator. A dye loading buffer is prepared which consists of a final concentration of 5 μM Fluo-3AM fluorescent cytoplasmic calcium indicator dye (Tef Labs), 2.2 μl/ml Pluronic F127 (Molecular Probes) to promote dye uptake, and 0.5 mM brilliant black (Sigma) to reduce background fluorescence in Balanced Salt Solution (BSS; 125 mM NaCl, 5.4mM KCl, 16.2 mM NaHCO3, 0.8 mM MgCl2, 1 mM CaCl2, 20 mM HEPES, 1 mM NaH2PO4, 5.5 mM D-(+)-Glucose, 0.1% BSA and pH 7.4 with NaOH). […]
Test compounds are made up at a stock concentration of 10 mM in DMSO. The compounds to be evaluated are then prepared, by serial dilution in BSS buffer, to the required concentrations for inhibition dose response curves to be constructed. […] This allows the potency agonist ([A]50) value to be determined for the HEK-hrCRTh2-Gα16 cells on any given day. Once the p[A]50 for PGD2 has been determined a separate assay plate containing 2×p[A]50 of PGD2 is prepared as the 2nd addition plate (or agonist plate). […]
In general terms: Calcium flux is commonly read through the fluorescence of an indicator in the cells.

By melting point is commonly meant the temperature of the solid-liquid transition.

The molecule `COc1ccc2c(c1)c(CC(=O)O)c(C)n2-c1cc(C)nc(-c2ccccc2)n1` [Example 1, [5-methoxy-2-methyl-1-(6-methyl-2-phenylpyrimidin4-yl)-1H-indol-3-yl]acetic acid] had a melting point of 160 to 162 °C. In addition, at CRTh2 receptor, the Kb was 316 nM.

For the molecule `COc1ccc2c(c1)c(CC(=O)O)c(C)n2-c1cc(Oc2ccccc2)nc(Oc2ccccc2)n1` [Example 3, [1-(2,6-diphenoxypyrimidin-4-yl)-5-methoxy-2-methyl-1H-indol-3-yl]acetic acid], the melting point is 168 to 170 °C.

Turning to `COc1ccc2c(c1)c(CC(=O)O)c(C)n2-c1nc2ccccc2s1` [Example 2, [1-(1,3-benzothiazol-2-yl)-5-methoxy-2-methyl-1H-indol-3-yl]acetic acid], the melting point lay in the range of 158 to 160 °C. For the same molecule, on CRTh2 receptor, the Kb was 316 nM.

For the molecule `Cc1ccc2c(c1)c(CC(=O)O)c(C)n2-c1cc(Oc2ccccc2)nc(Oc2ccccc2)n1` [[1-(2,6-diphenoxypyrimidin-4-yl)-2,5-dimethyl-1H-indol-3-yl]acetic acid], on CRTh2 receptor, the Kb is 158 nM.

The record behind these values is patent US20050101612A1, “Use of indole-3-acetic acids in the treatment of asthma, copd and other diseases” (priority 2002, published 2005).
